Measured values published in patent publication US10045981B2, “Selective kinase inhibitors” (JAKPHARM, LLC, priority 2015, dated 2018).

Columns and labels:
[1] = target: CK1g2 (Homo sapiens, UniProt P78368); test: Exemplary Kinase Panel Analysis; format: biochemical; settings: 10 concentrations, 3-fold serial dilutions starting at 5 μM, duplicate
[2] = target: EGFR (d752-759) (Homo sapiens, UniProt P00533, DEL752-759); test: Exemplary Kinase Panel Analysis; format: biochemical; settings: 10 concentrations, 3-fold serial dilutions starting at 5 μM, duplicate
Chain of EGFR (d752-759) (P00533 with tags, fused parts or gaps DEL752-759 limits assumed): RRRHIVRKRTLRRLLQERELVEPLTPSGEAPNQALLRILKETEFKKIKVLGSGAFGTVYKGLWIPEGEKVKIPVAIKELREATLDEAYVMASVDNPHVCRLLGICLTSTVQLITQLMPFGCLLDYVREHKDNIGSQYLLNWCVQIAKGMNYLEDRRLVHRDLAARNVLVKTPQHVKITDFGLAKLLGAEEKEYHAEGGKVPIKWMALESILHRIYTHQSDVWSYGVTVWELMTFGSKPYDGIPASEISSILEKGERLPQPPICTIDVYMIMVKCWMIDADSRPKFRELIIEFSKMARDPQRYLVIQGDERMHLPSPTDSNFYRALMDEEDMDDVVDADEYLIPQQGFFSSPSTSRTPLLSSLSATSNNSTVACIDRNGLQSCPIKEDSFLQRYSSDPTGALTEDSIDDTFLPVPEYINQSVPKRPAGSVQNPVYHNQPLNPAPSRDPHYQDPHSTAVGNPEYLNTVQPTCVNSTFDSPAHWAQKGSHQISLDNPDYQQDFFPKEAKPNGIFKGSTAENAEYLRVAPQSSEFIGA

[3] = target: EGFR (L858R, T790M) (Homo sapiens, UniProt P00533, L858R/T790M); test: Exemplary Kinase Panel Analysis; format: biochemical; settings: 10 concentrations, 3-fold serial dilutions starting at 5 μM, duplicate
Chain of EGFR (L858R, T790M) (P00533 25-1210 T790M/L858R): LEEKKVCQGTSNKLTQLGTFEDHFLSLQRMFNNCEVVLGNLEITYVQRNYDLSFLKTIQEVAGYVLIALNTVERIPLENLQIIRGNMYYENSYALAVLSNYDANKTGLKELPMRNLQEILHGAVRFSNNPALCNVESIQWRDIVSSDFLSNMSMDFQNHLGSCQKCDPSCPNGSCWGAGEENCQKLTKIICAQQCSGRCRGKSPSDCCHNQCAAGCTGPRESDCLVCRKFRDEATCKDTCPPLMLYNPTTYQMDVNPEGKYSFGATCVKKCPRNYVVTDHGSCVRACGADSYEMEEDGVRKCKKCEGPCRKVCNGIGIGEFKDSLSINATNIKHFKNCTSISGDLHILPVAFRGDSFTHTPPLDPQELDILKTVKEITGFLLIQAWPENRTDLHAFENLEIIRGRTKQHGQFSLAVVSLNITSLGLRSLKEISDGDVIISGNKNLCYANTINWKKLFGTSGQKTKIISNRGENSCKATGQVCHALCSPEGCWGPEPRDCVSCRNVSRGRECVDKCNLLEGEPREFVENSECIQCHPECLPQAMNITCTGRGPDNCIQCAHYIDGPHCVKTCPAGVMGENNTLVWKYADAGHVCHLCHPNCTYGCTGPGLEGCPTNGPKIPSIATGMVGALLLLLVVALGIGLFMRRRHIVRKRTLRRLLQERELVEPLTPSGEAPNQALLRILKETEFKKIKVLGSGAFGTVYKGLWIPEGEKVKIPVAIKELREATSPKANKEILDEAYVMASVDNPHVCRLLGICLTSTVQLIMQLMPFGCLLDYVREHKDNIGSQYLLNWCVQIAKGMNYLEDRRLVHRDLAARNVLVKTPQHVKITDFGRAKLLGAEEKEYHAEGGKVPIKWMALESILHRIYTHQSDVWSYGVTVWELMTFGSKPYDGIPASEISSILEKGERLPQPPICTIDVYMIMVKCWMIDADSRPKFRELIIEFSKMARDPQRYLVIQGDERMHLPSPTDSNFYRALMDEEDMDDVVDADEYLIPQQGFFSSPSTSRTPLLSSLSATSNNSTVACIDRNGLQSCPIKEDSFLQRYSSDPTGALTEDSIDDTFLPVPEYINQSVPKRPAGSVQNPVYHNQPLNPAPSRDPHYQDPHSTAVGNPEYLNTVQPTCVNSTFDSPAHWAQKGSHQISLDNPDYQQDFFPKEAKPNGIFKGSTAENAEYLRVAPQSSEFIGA

[4] = target: EGFR (T790M) (Homo sapiens, UniProt P00533, T790M); test: Exemplary Kinase Panel Analysis; format: biochemical; settings: 10 concentrations, 3-fold serial dilutions starting at 5 μM, duplicate
Chain of EGFR (T790M) (P00533 25-1210 T790M): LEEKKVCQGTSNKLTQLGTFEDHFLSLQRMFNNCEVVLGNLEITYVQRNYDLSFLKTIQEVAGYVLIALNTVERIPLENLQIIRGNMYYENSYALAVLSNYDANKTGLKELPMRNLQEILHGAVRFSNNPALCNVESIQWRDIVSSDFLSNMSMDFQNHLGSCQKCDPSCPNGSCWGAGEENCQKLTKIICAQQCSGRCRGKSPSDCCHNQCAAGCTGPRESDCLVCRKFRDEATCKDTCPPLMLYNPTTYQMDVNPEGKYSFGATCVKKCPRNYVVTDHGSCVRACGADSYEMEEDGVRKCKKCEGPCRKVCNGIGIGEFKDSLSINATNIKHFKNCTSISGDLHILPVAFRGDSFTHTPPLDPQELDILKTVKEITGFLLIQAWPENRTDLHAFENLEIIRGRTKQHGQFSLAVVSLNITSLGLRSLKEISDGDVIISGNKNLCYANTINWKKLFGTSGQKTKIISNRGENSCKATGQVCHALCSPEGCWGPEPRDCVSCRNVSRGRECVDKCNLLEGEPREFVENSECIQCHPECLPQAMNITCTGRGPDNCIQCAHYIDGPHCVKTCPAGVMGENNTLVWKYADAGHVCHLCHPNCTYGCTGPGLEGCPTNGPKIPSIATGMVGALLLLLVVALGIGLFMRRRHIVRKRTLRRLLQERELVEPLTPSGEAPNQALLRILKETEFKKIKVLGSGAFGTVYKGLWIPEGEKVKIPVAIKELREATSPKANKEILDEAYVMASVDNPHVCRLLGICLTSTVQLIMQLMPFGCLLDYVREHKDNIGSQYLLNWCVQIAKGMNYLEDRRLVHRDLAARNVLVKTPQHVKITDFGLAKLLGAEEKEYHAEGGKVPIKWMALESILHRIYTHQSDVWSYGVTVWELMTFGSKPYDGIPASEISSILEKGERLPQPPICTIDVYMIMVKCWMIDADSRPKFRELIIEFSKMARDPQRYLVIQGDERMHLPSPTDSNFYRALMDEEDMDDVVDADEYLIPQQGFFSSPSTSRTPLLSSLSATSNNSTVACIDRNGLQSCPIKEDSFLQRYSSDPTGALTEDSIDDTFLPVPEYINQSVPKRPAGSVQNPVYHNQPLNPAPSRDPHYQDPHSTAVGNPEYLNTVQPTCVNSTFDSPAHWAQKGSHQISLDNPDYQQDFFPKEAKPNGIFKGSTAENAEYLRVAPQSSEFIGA

[5] = target: T1, ITK (Homo sapiens, UniProt Q08881); test: Exemplary Kinase Panel Analysis; format: biochemical; settings: 10 concentrations, 3-fold serial dilutions starting at 5 μM, duplicate
T1 sequence (Q08881 1-620): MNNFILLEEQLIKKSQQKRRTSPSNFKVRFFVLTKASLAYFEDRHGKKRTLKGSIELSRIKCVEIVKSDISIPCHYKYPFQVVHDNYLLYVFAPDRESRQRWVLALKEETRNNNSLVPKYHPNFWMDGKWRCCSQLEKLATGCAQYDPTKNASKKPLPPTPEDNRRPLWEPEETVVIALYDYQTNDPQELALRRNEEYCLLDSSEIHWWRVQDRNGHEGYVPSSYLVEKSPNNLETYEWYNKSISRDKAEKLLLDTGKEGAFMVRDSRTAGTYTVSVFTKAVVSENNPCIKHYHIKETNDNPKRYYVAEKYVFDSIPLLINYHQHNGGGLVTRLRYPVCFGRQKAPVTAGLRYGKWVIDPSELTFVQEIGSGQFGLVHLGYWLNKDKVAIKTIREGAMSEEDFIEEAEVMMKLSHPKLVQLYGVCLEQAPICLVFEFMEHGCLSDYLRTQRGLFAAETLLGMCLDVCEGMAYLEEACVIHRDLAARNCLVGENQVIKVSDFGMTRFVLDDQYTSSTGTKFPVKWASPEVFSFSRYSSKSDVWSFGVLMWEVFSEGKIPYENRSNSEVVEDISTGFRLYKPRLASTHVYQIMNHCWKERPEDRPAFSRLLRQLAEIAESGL

[6] = Brain penetration classification
[7] = Human Liver Microsomes stability; format: in vitro ADME; settings: read-out: Human Liver Microsomes t½
[8] = Mouse Liver Microsomes stability; format: in vitro ADME; settings: read-out: Mouse Liver Microsomes t½
[9] = target: T2, CYP1A2 (Homo sapiens, UniProt P05177); test: CYP1A2 inhibition LCMS; format: in vitro ADME
T2 sequence (P05177 1-516): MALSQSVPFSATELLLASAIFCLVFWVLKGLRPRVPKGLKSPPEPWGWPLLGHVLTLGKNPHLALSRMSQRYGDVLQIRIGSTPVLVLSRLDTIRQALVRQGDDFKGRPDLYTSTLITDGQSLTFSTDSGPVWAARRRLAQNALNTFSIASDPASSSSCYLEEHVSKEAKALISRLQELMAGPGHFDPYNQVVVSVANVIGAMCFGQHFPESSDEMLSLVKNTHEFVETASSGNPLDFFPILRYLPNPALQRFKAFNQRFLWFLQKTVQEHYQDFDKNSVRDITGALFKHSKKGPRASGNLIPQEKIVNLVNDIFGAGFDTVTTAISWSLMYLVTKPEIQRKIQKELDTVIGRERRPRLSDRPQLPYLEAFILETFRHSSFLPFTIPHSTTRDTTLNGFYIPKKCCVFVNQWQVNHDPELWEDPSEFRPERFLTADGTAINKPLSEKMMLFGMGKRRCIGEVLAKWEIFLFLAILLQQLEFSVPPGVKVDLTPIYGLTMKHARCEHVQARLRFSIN

[10] = target: T3, CYP3A4 (Homo sapiens, UniProt P08684); test: CYP3A4 inhibition midazolam LCMS; format: in vitro ADME
T3 sequence (P08684 whole entry): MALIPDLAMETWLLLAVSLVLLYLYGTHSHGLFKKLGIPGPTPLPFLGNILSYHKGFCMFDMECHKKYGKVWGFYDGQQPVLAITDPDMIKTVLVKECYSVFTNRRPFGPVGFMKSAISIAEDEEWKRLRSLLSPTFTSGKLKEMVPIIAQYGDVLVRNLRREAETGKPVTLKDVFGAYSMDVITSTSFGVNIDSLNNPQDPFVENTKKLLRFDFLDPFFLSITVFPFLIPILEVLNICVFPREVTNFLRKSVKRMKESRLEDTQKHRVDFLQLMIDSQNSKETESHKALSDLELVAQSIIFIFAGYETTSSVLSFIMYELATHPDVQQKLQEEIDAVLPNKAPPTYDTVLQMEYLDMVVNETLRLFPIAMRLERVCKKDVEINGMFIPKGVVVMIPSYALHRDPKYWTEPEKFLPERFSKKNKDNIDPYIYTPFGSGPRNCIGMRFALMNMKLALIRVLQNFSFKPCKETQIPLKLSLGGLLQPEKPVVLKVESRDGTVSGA

[11] = target: T3, CYP3A4; test: CYP3A4 inhibition testosterone LCMS; format: in vitro ADME; settings: read-out: CYP3A4 K50 [uM] testosterone LCMS
[12] = Human Plasma protein binding; format: in vitro ADME
[13] = Mouse Plasma protein binding; format: in vitro ADME

Chain of CK1g2 (P78368 whole entry, species assumed): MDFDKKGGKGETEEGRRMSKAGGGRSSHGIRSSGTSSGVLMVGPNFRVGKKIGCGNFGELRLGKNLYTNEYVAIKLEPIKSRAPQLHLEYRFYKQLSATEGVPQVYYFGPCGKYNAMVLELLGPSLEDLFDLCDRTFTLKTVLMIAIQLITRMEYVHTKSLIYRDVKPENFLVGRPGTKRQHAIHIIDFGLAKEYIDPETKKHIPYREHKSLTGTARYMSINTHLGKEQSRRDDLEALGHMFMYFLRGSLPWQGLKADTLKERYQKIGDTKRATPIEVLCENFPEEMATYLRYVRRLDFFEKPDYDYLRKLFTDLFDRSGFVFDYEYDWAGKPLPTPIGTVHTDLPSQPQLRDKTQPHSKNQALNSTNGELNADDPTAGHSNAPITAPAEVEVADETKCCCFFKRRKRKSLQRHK

| IC50 [1] | IC50 [2] | IC50 [3] | IC50 [4] | IC50 [5] | Brain penetration classification [6] | half-life ([7]; first session (before /)) | half-life ([7]; second session (after /)) | half-life ([8]; first session (before /)) | half-life ([8]; second session (after /)) | IC50 ([9]; first session (before /)) | IC50 ([9]; second session (after /)) | IC50 ([10]; first session (before /)) | IC50 ([10]; second session (after /)) | IC50 ([11]; first session (before /)) | IC50 ([11]; second session (after /)) | fraction unbound [12] | fraction unbound [13] | SMILES |
| --- | --- | --- | --- | --- | --- | --- | --- | --- | --- | --- | --- | --- | --- | --- | --- | --- | --- | --- |
| 0.248 µM | 0.194 µM | 0.231 µM | 0.688 µM | 0.0721 µM | Low | 64 min | 60 min | 7.3 min | 15 min | 34 µM | > 100 µM | > 100 µM | > 100 µM | 81.5 µM | > 100 µM | 0.223 | 0.034 | C=CC(=O)Nc1cc(CN2CCN(C)C(=O)C2)cc(-c2cnc3ccccc3n2)c1 [Compound 1a] |
| 0.0333 µM | 3.18 µM | 1.12 µM | 2.24 µM | 0.278 µM | Low | 58 min | 60 min | 25 min | 84 min | > 100 µM | > 100 µM | > 100 µM | > 100 µM | 89.7 µM | 51 µM | 0.054 | 0.147 | C=CC(=O)Nc1cc(NS(C)(=O)=O)cc(-c2cnc3ccccc3n2)c1 [Compound 3] |
| 0.00986 µM | 1.03 µM | 0.653 µM | 3.31 µM | 0.0349 µM | Moderate | > 1000 min | 5.5 min | 3.3 min | 6 min | 90 µM | 5.1 µM | > 100 µM | > 100 µM | > 100 µM | > 100 µM | 0.123 | – | C=CC(=O)Nc1cc(CC(=O)OC)cc(-c2cnc3ccccc3n2)c1 [Compound 2] |
| 0.322 µM | 1.56 µM | 1.32 µM | 3.54 µM | 0.068 µM | Low | 75 min | > 60 min | 23 min | 50 min | > 100 µM | > 100 µM | > 100 µM | > 100 µM | > 100 µM | > 100 µM | 0.317 | 0.059 | C=CC(=O)Nc1cc(CN2CCNC(=O)C2)cc(-c2cnc3ccccc3n2)c1 [Compound 1b, N-[3-[(3-oxopiperazin-1-yl)methyl]-5-quinoxalin-2-yl-phenyl] prop-2-enamide] |
